Assay results reported in PubChem BioAssay AID1919010 (Molecular Pharmacology Branch, DTP, NCI, 2023).

System: Hs578T complex spheroid growth, percent test/control
Experiment: Anticancer human tumor Hs578T cell line growth inhibition [AhR];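 also: luminescent viability signal as a proxy for spheroid growth; spheroids exposed to agents for one week after three days of growth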
Conditions: for IC50: curve of first compound; for viability, T/C: stronger effect = lower value; active = viability on the fitted dose curve at most 10% of control; inactive = the rest
Method in brief: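 Spheroids combined tumor cells with HUVEC endothelial cells and human MSCs as stroma. AhR antagonists were paired with standard or investigational drugs, each dosed in half-log steps down from near clinical Cmax, or from 10 microM where Cmax was unknown.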

[1] = second compound 0.1 µM, first compound 0.0316 µM
[2] = second compound 0.1 µM, first compound 0.1 µM
[3] = second compound 0.316 µM, first compound 0.0316 µM
[4] = second compound 0.316 µM, first compound 0.1 µM
[5] = second compound 1 µM, first compound 0.0316 µM
[6] = second compound 1 µM, first compound 0.1 µM
[7] = second compound 3.16 µM, first compound 0.0316 µM
[8] = second compound 3.16 µM, first compound 0.1 µM
[9] = second compound 10 µM, first compound 0.0316 µM
[10] = second compound 10 µM, first compound 0.1 µM

Cn1ncnc1C1c2n[nH]c(=O)c3cc(F)cc(c23)NC1c1ccc(F)cc1 (stereo not given) + Cc1ccccc1N=Nc1ccc(NC(=O)c2ccnn2C)c(C)c1
> 0.1 µM: IC50 (second compound 0.1 µM) | IC50 (second compound 0.316 µM) | IC50 (second compound 1 µM) | IC50 (second compound 3.16 µM) | IC50 (second compound 10 µM)
inactive: viability, T/C (second compound 0.1 µM, first compound 0.000316 µM) 109% | viability, T/C (second compound 0.1 µM, first compound 0.001 µM) 104% | viability, T/C (second compound 0.1 µM, first compound 0.00316 µM) 105% | viability, T/C (second compound 0.1 µM, first compound 0.01 µM) 105% | viability, T/C [1] 100% | viability, T/C [2] 99.5% | viability, T/C (second compound 0.316 µM, first compound 0.000316 µM) 121% | viability, T/C (second compound 0.316 µM, first compound 0.001 µM) 117% | viability, T/C (second compound 0.316 µM, first compound 0.00316 µM) 109% | viability, T/C (second compound 0.316 µM, first compound 0.01 µM) 105% | viability, T/C [3] 106% | viability, T/C [4] 107% | viability, T/C (second compound 1 µM, first compound 0.000316 µM) 108% | viability, T/C (second compound 1 µM, first compound 0.001 µM) 105% | viability, T/C (second compound 1 µM, first compound 0.00316 µM) 107% | viability, T/C (second compound 1 µM, first compound 0.01 µM) 104% | viability, T/C [5] 107% | viability, T/C [6] 99.7% | viability, T/C (second compound 3.16 µM, first compound 0.000316 µM) 94.4% | viability, T/C (second compound 3.16 µM, first compound 0.001 µM) 103% | viability, T/C (second compound 3.16 µM, first compound 0.00316 µM) 101% | viability, T/C (second compound 3.16 µM, first compound 0.01 µM) 93.9% | viability, T/C [7] 99.9% | viability, T/C [8] 99% | viability, T/C (second compound 10 µM, first compound 0.000316 µM) 73.7% | viability, T/C (second compound 10 µM, first compound 0.001 µM) 71.2% | viability, T/C (second compound 10 µM, first compound 0.00316 µM) 76.7% | viability, T/C (second compound 10 µM, first compound 0.01 µM) 81.7% | viability, T/C [9] 69% | viability, T/C [10] 72.2%

NS(=O)(=O)OCC1CC(n2ccc3c(NC4CCc5ccccc54)ncnc32)CC1O (stereo not given) + Cc1ccccc1N=Nc1ccc(NC(=O)c2ccnn2C)c(C)c1
1.47 µM: IC50 (second compound 0.316 µM)
0.105 µM: IC50 (second compound 10 µM)
1.52 µM: IC50 (second compound 1 µM)
0.862 µM: IC50 (second compound 3.16 µM)
0.965 µM: IC50 (second compound 0.1 µM)
inactive: viability, T/C [1] 104% | viability, T/C [2] 82.5% | viability, T/C (second compound 0.1 µM, first compound 0.316 µM) 78.1% | viability, T/C (second compound 0.1 µM, first compound 1 µM) 45.4% | viability, T/C (second compound 0.1 µM, first compound 3.16 µM) 34.6% | viability, T/C (second compound 0.1 µM, first compound 10 µM) 30.2% | viability, T/C [3] 108% | viability, T/C [4] 78.2% | viability, T/C (second compound 0.316 µM, first compound 0.316 µM) 71.2% | viability, T/C (second compound 0.316 µM, first compound 1 µM) 59% | viability, T/C (second compound 0.316 µM, first compound 3.16 µM) 36.5% | viability, T/C (second compound 0.316 µM, first compound 10 µM) 33.7% | viability, T/C [5] 97.8% | viability, T/C [6] 74.8% | viability, T/C (second compound 1 µM, first compound 0.316 µM) 83.1% | viability, T/C (second compound 1 µM, first compound 1 µM) 57.7% | viability, T/C (second compound 1 µM, first compound 3.16 µM) 35.3% | viability, T/C (second compound 1 µM, first compound 10 µM) 34.7% | viability, T/C [7] 94.9% | viability, T/C [8] 71% | viability, T/C (second compound 3.16 µM, first compound 0.316 µM) 67.9% | viability, T/C (second compound 3.16 µM, first compound 1 µM) 45.5% | viability, T/C (second compound 3.16 µM, first compound 3.16 µM) 36.5% | viability, T/C (second compound 3.16 µM, first compound 10 µM) 28% | viability, T/C [9] 59.4% | viability, T/C [10] 47.9% | viability, T/C (second compound 10 µM, first compound 0.316 µM) 43.8% | viability, T/C (second compound 10 µM, first compound 1 µM) 37.5% | viability, T/C (second compound 10 µM, first compound 3.16 µM) 30.2% | viability, T/C (second compound 10 µM, first compound 10 µM) 25.8%
